Test results published in patent US20250011363A1, “OPTIMIZED SHORTENED PEPTIDE THAT BINDS TO ACETYLCHOLINE RECEPTOR, AND USE THEREOF” (SKINMED CO., LTD., priority 2021, published 2025).
Where two headings read alike, the source gives them in different places. Residues, ends and D or L forms follow the SMILES beside them. No end group written: not given here. *: point of attachment. Palmitoyl = CCCCCCCCCCCCCCCC(=O)*

Legend:
[1] = molecular target: T1, Acetylcholine receptor-overexpressing TE671 cells (Homo sapiens, UniProt P02708); assay: Calcium imaging (Fura-2-AM) of nicotine response, acetylcholine receptor inhibition; type: cell-based; conditions: for inhibition at 1 µM: TE-671; for concentration at which acetylcholine receptors were inhibited: TE671 cells, nicotine 400 uM, calcium imaging
T1 construct: endogenous in cells; host or cells: TE671 cells
T1 sequence (P07510 23-517): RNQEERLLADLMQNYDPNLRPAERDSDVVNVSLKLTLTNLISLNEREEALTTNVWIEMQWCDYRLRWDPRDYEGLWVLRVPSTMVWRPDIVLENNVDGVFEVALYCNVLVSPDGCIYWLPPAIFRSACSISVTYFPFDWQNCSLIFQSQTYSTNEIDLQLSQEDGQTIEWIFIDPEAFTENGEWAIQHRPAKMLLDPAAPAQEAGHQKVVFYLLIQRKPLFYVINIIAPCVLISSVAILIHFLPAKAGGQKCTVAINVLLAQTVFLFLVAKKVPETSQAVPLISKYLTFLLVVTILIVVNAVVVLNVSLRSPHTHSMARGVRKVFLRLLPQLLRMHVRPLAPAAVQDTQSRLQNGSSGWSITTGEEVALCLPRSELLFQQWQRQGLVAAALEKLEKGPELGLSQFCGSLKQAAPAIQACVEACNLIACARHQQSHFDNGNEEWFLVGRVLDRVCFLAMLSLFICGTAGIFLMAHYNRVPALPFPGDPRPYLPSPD
T1 sequence (P11230 24-501, further chain): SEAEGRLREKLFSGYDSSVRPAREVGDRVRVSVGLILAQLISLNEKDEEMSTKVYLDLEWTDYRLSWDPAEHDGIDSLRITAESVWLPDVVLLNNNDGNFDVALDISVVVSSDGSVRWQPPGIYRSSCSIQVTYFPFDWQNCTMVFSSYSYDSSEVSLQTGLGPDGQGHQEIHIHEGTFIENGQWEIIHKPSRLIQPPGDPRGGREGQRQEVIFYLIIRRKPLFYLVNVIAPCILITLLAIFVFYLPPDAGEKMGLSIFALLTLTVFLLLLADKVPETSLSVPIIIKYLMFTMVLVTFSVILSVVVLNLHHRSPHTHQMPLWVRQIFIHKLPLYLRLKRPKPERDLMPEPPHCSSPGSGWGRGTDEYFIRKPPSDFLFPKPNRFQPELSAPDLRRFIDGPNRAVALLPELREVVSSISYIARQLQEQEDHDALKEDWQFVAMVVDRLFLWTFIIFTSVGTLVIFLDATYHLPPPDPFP
T1 sequence (Q07001 22-517, further chain): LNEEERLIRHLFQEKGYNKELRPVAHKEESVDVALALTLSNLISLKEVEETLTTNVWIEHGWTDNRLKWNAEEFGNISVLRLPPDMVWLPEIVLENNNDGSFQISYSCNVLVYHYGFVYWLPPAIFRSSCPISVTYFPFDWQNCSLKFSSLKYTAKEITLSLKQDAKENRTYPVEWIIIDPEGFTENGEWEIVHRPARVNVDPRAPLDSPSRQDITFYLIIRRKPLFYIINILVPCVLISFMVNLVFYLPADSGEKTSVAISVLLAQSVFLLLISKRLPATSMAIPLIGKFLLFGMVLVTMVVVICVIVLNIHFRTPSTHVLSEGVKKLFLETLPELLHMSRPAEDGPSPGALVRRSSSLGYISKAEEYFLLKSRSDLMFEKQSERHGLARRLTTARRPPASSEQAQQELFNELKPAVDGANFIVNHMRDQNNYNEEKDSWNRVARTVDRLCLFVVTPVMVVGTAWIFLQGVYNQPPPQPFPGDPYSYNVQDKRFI
T1 sequence (P02708 21-457): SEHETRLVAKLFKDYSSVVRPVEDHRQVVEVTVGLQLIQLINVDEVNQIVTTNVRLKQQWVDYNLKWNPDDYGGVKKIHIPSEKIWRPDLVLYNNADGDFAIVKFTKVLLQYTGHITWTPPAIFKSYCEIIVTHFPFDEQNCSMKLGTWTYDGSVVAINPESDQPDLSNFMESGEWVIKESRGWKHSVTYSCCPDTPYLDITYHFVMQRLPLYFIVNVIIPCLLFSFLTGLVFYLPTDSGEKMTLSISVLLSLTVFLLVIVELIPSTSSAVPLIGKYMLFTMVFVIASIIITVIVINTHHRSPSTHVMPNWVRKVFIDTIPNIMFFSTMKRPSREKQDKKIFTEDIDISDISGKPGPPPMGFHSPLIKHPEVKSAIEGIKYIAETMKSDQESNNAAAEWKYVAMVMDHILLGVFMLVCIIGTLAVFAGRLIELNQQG
Method: Acetylcholine receptor-overexpressing TE671 cells were cultured at 37° C. in DMEM medium supplemented with 10% FBS and 1% P/S under 5% CO2. After the TE671 cells were sufficiently grown for 4 days, the cells were detached using trypsin and the cell culture was plated in an amount of 1 ml at a density of 2×10^4 cells/well into 12-well cell culture plate with an 18 mm cover-slip lined therein, and cultured for 4 days.
The cover-slip on which the cells had grown was transferred to a fresh 12-well cell culture plate, and 997 μl of HBSS buffer and 3 μl of Fura-2-AM were added and gently mixed, followed by incubation at 37° C., 5% CO2 for 15 minutes. After incubation, the remaining Fura-2-AM was removed by washing 3-4 times with 1 ml of HBSS buffer, and an additional 1 ml was added. The cover-slip with the grown cells was placed in a chamber, and 500 μl of HBSS buffer was dispensed. The final concentration of nicotine was adjusted to 400 µM to observe the calcium imaging reaction. Then, while keeping the nicotine concentration fixed, the concentration of the sample was adjusted to find the inhibiting concentration.
The inhibitory ability of the Palmitate-6mer-1-43 and Palmitate-5mer-73 peptides on the acetylcholine receptor was examined in the same manner as in Example 6. Additionally, the inhibitory ability (IC50) of the optimized short peptides and the palmitate-modified peptides according to the present disclosure against acetylcholine receptor was compared with Synake and is depicted in FIG. 16.

[2] = tested on: dermal fibroblast cells isolated from human skin; conditions: 100 nM to 100 μM, 24 hours
Method: The optimized shortened peptides according to the present disclosure were assayed for cytotoxicity. In this regard, the cytotoxicity was assessed by the MTT [(3-(4,5-dimethylthiazol-2-yl)-2,5-diphenyltetrazolium bromide] method using dermal fibroblast cells isolated from human skin. The pre-cultured cells were seeded at a concentration of 1×10^5 cells/mL in a 24-well plate and cultured for 18 hours. Subsequently, the medium was removed and the diluted sample was added to the medium free of FBS and incubated for 24 hours, after which the medium was removed and MTT solution was added at a concentration of 1 μg/mL and reacted for 3 hours. Unreacted MTT was removed, and DMSO 100 μL was added to dissolve the formed formazan, and the absorbance at 540 nm was read on an ELISA reader.

acetylcholine receptor [3] = molecular target: T2, acetylcholine receptor (Homo sapiens, UniProt P02708); assay: SPR (Biacore) affinity of shortened Espep2 peptides, Examples 1-2; type: binding; conditions: for higher affinity compared to Synake: SPR, FIG. 1
T2 sequence (P02708 21-457): as above
Method: To construct an optimized shortened library from the previous Espep2 peptide, assessment was made of the affinity of peptides having sequences sequentially removed from the N- and C-terminals. Initially, surface plasmon resonance (SPR) experiments were conducted using a biosensor chip (Biacore3000, Biacore AB, Uppsala, Sweden). Selected acetylcholine receptor proteins were immobilized on a CM5 chip (Biacore) using EDC/NHS and observed for association and dissociation for up to 500 seconds. The observation conditions were set forth as follows: running buffer 20 mM Tris (pH 7.4), rate 30 ul/min, concentration 20 μM (peptide), and the results are depicted in FIG. 1.
To identify the crucial sequences in the shortened peptides, alanine scanning was conducted. Wild-type (WT) Espep2-6mer (RKSLLR) and Espep2-5mer (KSLLR) peptides were synthesized with each amino acid sequentially substituted with alanine (Ala, A), and their affinity was measured using the same method as in Example 1. The measurements are depicted in FIG. 2 after normalization to WT.
Moreover, among the six amino acids in the RKSLLR sequence, R residues at the N and C terminals are crucial.

acetylcholine receptor [4] = molecular target: T2, acetylcholine receptor; assay: SPR binding affinity (RU) of optimized 5mer/6mer/7mer peptides, Examples 6-7; conditions: for Binding affinity (RU) / Binding affinity: SPR; for Binding affinity (RU): peptides at 10 μM; for Binding affinity: peptides tested at 10 μM
In short: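 Single-concentration screen: 10 μM peptide, SPR detection, binding expressed as RU.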

acetylcholine receptor [5] = molecular target: T2, acetylcholine receptor; assay: SPR (Biacore) affinity of shortened Espep2 peptides, Examples 1-2; type: binding; conditions: FIG. 3

Compound: CCCCCCCCCCCCCCCC(=O)N[C@@H](CCCNC(=N)N)C(=O)N[C@@H](CCCNC(=N)N)C(=O)N[C@@H](CCC(N)=O)C(=O)N[C@@H](CCCNC(=N)N)C(=O)N[C@@H](CCCNC(=N)N)C(=O)O [Pal-5mer-73] (Palmitoyl-RRQRR-OH; N-terminus and C-terminus assumed)
- inhibition at 1 µM [1]: 100%
- cytotoxicity (MTT) [2]: non-toxic

Compound: CCCCCCCCCCCCCCCC(=O)N[C@@H](CCCNC(=N)N)C(=O)N[C@@H](CCCCN)C(=O)N[C@@H](CCCNC(=N)N)C(=O)N[C@H](C(=O)N[C@@H](CCCNC(=N)N)C(=O)N[C@@H](CCCNC(=N)N)C(=O)O)[C@@H](C)CC [Pal-6mer-1-43] (Palmitoyl-RKRIRR-OH; N-terminus and C-terminus assumed)
- inhibition at 1 µM [1]: 100%
- cytotoxicity (MTT) [2]: non-toxic

Compound: KGRKSLLR [Espep2-8mer, KGRKSLLR]
- Kd (acetylcholine receptor [3]): 3.1 µM
- higher affinity compared to Synake (acetylcholine receptor [3]): 740 times

Compound: KSLLR [5mer-ND]
- Binding affinity (RU) (acetylcholine receptor [4]): 23 RU
- binding affinity compared to Synake (acetylcholine receptor [5]): higher binding affinity than Synake

Compound: RKRIRR [6mer-1-43, RKRIRR]
- Kd (acetylcholine receptor [4]): 0.609 µM
- Binding affinity (RU) (acetylcholine receptor [4]): 548 RU
- Binding affinity (acetylcholine receptor [4]; 6mer-1 Top sequence (top combinations)): 548 Ru
- concentration at which acetylcholine receptors were inhibited [1]: 10 µM
- cytotoxicity (MTT) [2]: non-toxic

Compound: RKSLL [5mer-CD]
- binding affinity compared to Synake (acetylcholine receptor [5]): slightly lower binding affinity compared to Synake

Compound: RKSLLR [Espep2-6mer, RKSLLR]
- Kd (acetylcholine receptor [3]): 57 µM
- higher affinity compared to Synake (acetylcholine receptor [3]): 40 times
- Binding affinity (RU) (acetylcholine receptor [4]): 35 RU
- binding affinity compared to Synake (acetylcholine receptor [5]): higher affinity than that of Synake
- RU value (acetylcholine receptor [5]; peptide 20 μM): 177 RU

Compound: RRGVRR [6mer-1-210]
- Binding affinity (acetylcholine receptor [4]; 6mer-1 Top sequence): 184 Ru
- Binding affinity (RU) (acetylcholine receptor [4]): 184 RU
- concentration at which acetylcholine receptors were inhibited [1]: 10 µM

Compound: RRQRR [5mer-73, RRQRR]
- cytotoxicity (MTT) [2]: non-toxic
- skin permeability (after 8 hours, 37° C.): 66.87%

Compound: RSYSR [5mer-311]
- Binding affinity (RU) (acetylcholine receptor [4]): 167 RU
- Binding affinity (acetylcholine receptor [4]; 5mer Top sequence): 167 Ru
- concentration at which acetylcholine receptors were inhibited [1]: 10 µM

Compound: RWRYKR [6mer-2-136]
- Binding affinity (acetylcholine receptor [4]; 6mer-2 Top sequence): 194 Ru
- Binding affinity (RU) (acetylcholine receptor [4]): 194 RU
- concentration at which acetylcholine receptors were inhibited [1]: 10 µM

Compound: WTWKGRKSLLR [Espep2-11mer, WTWKGRKSLLR, reference compound]
- Kd (acetylcholine receptor [3]): 1.2 µM
- higher affinity compared to Synake (acetylcholine receptor [3]): 1916 times
- concentration at which acetylcholine receptors were inhibited [1]: 5 µM
- skin permeability (sampled up to 24 hours): did not permeate at all
